Laboratory results taken from US20030224416A1, “Schizophrenia related gene” (priority 2002, published 2003).

Columns and labels:
Kv3.1 α-subunit mRNA = experiment: Experiment 1: in situ hybridization of Kv3.1 α-subunit mRNA in brain, chronic PCP rat model of schizophrenia with antipsychotic co-treatment; type: in vivo; settings: for Kv3.1 α-subunit mRNA expression: PCP-Veh (PCP 2.24 mg/kg i.p.)
Kv3.1 mRNA = experiment: Experiment 2: in situ hybridisation of Kv3.1 mRNA in rat brain after chronic intermittent PCP (YRING model); type: in vivo
Procedure: (§1) In a second experiment using different method for in situ hybridisation, the effect of chronic PCP treatment on Kv3.1, Kv3.2 and Kv3.3 mRNA were examined. […] Animals were treated according to the YRING model (FIG. 1) and killed by cervical dislocation 72 hours after the last exposure to PCP. The brains were stored at −70° C. until required.
(§2) 20 μm coronal sections were cut on a cryostat at −20° C. and collected onto poly-L-lysine coated slides. The sections were fixed, dehydrated and stored under ethanol at 4° C. until required. […] On the day of in situ hybridization, the sections from the chronic study were allowed to dry at room temperature then hybridized with the appropriate probe overnight at 42° C. The sections were then washed, dehydrated and air-dried before being exposed to x-ray film for 7-10 days.
(§3) The quantification of mRNA expression was carried out using computer-based densitometry (MCID 5). Bilateral relative optical density measurements were taken from duplicate sections from each animal (n=8-10 per treatment group for the chronic study). The results were analyzed using individual t-tests for each brain region. Statistical significance was defined as p<0.05, again after correction for multiple comparisons using the sequential Bonferroni correction factor.

Kv3.2 mRNA = experiment: Experiment 2: in situ hybridisation of Kv3.2 mRNA in rat brain after chronic intermittent PCP (YRING model); type: in vivo
Procedure: as §1, §2, §3

Kv3.3 mRNA = experiment: Experiment 2: in situ hybridisation of Kv3.3 mRNA in rat brain after chronic intermittent PCP (YRING model); type: in vivo
Procedure: as §1, §2, §3

schizophrenia = settings: patients; cited from earlier work
[1] = ventral part of the reticular thalamic nucleus

## c1ccc(C2(N3CCCCC3)CCCCC2)cc1 [PCP, phencyclidine]
Kv3.1 α-subunit mRNA; ACg
  Kv3.1 α-subunit mRNA expression: 15.01 PSL/mm^2
Kv3.1 α-subunit mRNA; AcbC
  Kv3.1 α-subunit mRNA expression: 8.48 PSL/mm^2
Kv3.1 α-subunit mRNA; AcbS
  Kv3.1 α-subunit mRNA expression: 10.62 PSL/mm^2
Kv3.1 α-subunit mRNA; Au1
  Kv3.1 α-subunit mRNA expression: 18.08 PSL/mm^2
Kv3.1 α-subunit mRNA; CA1pd
  Kv3.1 α-subunit mRNA expression: 15.90 PSL/mm^2
Kv3.1 α-subunit mRNA; CA2pd
  Kv3.1 α-subunit mRNA expression: 18.61 PSL/mm^2
Kv3.1 α-subunit mRNA; CA3pd
  Kv3.1 α-subunit mRNA expression: 32.94 PSL/mm^2
Kv3.1 α-subunit mRNA; DGgd
  Kv3.1 α-subunit mRNA expression: 38.63 PSL/mm^2
Kv3.1 α-subunit mRNA; DLStr
  Kv3.1 α-subunit mRNA expression: 5.87 PSL/mm^2
Kv3.1 α-subunit mRNA; IL
  Kv3.1 α-subunit mRNA expression: 12.28 PSL/mm^2
Kv3.1 α-subunit mRNA; IO
  Kv3.1 α-subunit mRNA expression: 16.48 PSL/mm^2
Kv3.1 α-subunit mRNA; M1
  Kv3.1 α-subunit mRNA expression: 15.88 PSL/mm^2
Kv3.1 α-subunit mRNA; M2
  Kv3.1 α-subunit mRNA expression: 14.38 PSL/mm^2
Kv3.1 α-subunit mRNA; MG
  Kv3.1 α-subunit mRNA expression: 26.93 PSL/mm^2
Kv3.1 α-subunit mRNA; MM
  Kv3.1 α-subunit mRNA expression: 24.34 PSL/mm^2
Kv3.1 α-subunit mRNA; Pir
  Kv3.1 α-subunit mRNA expression: 40.65 PSL/mm^2
Kv3.1 α-subunit mRNA; PrL
  Kv3.1 α-subunit mRNA expression: 9.83 PSL/mm^2
Kv3.1 α-subunit mRNA; RSa
  Kv3.1 α-subunit mRNA expression: 17.96 PSL/mm^2
Kv3.1 α-subunit mRNA; RSg
  Kv3.1 α-subunit mRNA expression: 20.38 PSL/mm^2
Kv3.1 α-subunit mRNA; SN
  Kv3.1 α-subunit mRNA expression: 12.82 PSL/mm^2
Kv3.1 α-subunit mRNA; VMStr
  Kv3.1 α-subunit mRNA expression: 6.15 PSL/mm^2
Kv3.1 α-subunit mRNA; VO
  Kv3.1 α-subunit mRNA expression: 19.85 PSL/mm^2
Kv3.1 α-subunit mRNA; dRt
  Kv3.1 α-subunit mRNA expression: 48.80 PSL/mm^2
Kv3.1 α-subunit mRNA; dorsal part of the reticular nucleus of the thalamus (dRt)
  change in Kv3.1 α-subunit mRNA expression after chronic PCP treatment: −15%
Kv3.1 α-subunit mRNA; dorsolateral striatum (DLStr)
  change in Kv3.1 α-subunit mRNA expression after chronic PCP treatment: −16%
Kv3.1 α-subunit mRNA; prelimbic region of the prefrontal cortex (PrL)
  change in Kv3.1 α-subunit mRNA expression after chronic PCP treatment: −31%
Kv3.1 α-subunit mRNA; vRt
  Kv3.1 α-subunit mRNA expression: 45.07 PSL/mm^2
Kv3.1 mRNA; prelimbic cortex
  change in Kv3.1 mRNA expression after chronic intermittent PCP: −23%
Kv3.1 mRNA; regions other than prelimbic cortex and vRt
  Kv3.1 mRNA expression change after chronic intermittent PCP: No other changes were observed in any other regions
Kv3.1 mRNA; [1]
  change in Kv3.1 mRNA expression after chronic intermittent PCP: −19%
Kv3.2 mRNA; anteromedial thalamic nucleus
  change in Kv3.2 mRNA expression after chronic intermittent PCP: −9%
Kv3.2 mRNA; prelimbic cortex
  change in Kv3.2 mRNA expression after chronic intermittent PCP: +16%
Kv3.2 mRNA; primary motor cortex
  change in Kv3.2 mRNA expression after chronic intermittent PCP: +13%
Kv3.2 mRNA; regions other than prelimbic cortex, primary motor cortex, anteromedial thalamic nucleus
  Kv3.2 mRNA expression change after chronic intermittent PCP: No significant changes were observed
Kv3.3 mRNA; anterodorsal thalamic nucleus
  change in Kv3.3 mRNA expression after chronic intermittent PCP: +21%
Kv3.3 mRNA; prelimbic cortex
  change in Kv3.3 mRNA expression after chronic intermittent PCP: +18%
Kv3.3 mRNA; regions other than prelimbic, ventral orbital cortex, AD, vRt
  Kv3.3 mRNA expression change after chronic intermittent PCP: No other changes were observed in any other regions
Kv3.3 mRNA; ventral orbital cortex
  change in Kv3.3 mRNA expression after chronic intermittent PCP: +14%
Kv3.3 mRNA; [1]
  change in Kv3.3 mRNA expression after chronic intermittent PCP: +33%

## O=C(CCCN1CCC(O)(c2ccc(Cl)cc2)CC1)c1ccc(F)cc1 [haloperidol]
schizophrenia
  action against the negative symptoms and cognitive dysfunction of schizophrenia: ineffective
  attenuating the positive symptoms of schizophrenia: effective
